{"source": "patent US20120065165A1", "about": "“COMPOSITIONS AND METHODS OF TREATING ENDOTHELIAL DISORDERS” (ARGINETIX, INC, priority 2008, published 2012)", "key": {"aged Fisher rats": {"system": "aged Fisher rats", "experiment": "Vascular stiffness by pulse wave velocity (PWV) in Fisher rats", "type": "in vivo, rat", "description": "When the heart contracts it generates a pulse, or energy wave, that travels through the circulatory system. […] PWV was determined in aged (22-26 months) Fisher rats, treated with ABH as described in Example 1. […] PWV was measured before and after 28 days of treatment with ABH (6 mg/kg) (See FIG. 5A). ABH improved vascular function in aortic rings tested in organ chambers (See FIG. 5B), while an endothelial-independent NO donor, SNP had no effect (C). *p<0.01 vs. young and #p<0.05 vs. old pre-treated, (n=3-8). […] This affect was not observed in untreated aged rats. There was a small but statistically significant increase in vascular stiffness in young control rats over the 28 days of the experiment. This change however was not observed in rats that were treated with ABH."}, "arginase I": {"molecular_target": "T1, arginase I (Homo sapiens, UniProt P05089)", "T1 sequence (P05089 1-322)": "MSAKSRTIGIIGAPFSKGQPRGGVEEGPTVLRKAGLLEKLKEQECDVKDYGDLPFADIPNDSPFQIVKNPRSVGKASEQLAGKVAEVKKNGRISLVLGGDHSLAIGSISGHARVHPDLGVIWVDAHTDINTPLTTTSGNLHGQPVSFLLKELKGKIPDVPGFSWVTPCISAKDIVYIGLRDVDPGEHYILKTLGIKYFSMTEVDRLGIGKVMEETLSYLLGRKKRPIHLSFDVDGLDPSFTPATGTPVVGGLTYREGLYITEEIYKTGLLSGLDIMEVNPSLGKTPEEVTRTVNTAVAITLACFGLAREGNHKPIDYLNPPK", "conditions": "cited from earlier work"}, "rat aortic rings": {"system": "rat aortic rings", "experiment": "Vasorelaxation of aortic rings in organ chambers after 28 days oral ABH", "type": "in vivo", "description": "To investigate whether these changes in vascular stiffness could be related to specific measures of endothelial function, rats were euthanized following treatment, and the thoracic aortas dissected and placed in organ chambers as previously described (White, et al., 2006 Hypertension 47: 245-251). Rat aortic rings were pre-constricted using phenylephrine (1 μM), and vasorelaxant response to the endothelial-dependent (NO mediated) vasodilator acetylcholine (ACh), administered at 1 μM to 10 μM, was determined. […] ABH had no effect on vascular endothelial relaxation in young rats."}, "diabetic ZDF rats": {"system": "diabetic ZDF rats", "experiment": "Oral ABH in type 2 diabetic ZDF rats: vascular and erectile function (Example 7)", "type": "in vivo, rat", "source_text": "The effects of ABH in the ZDF rat model of type 2 diabetes after systemic in vivo administration is investigated as described below. […] Given the similarities in indicators of vascular dysfunction between aged rats and diabetic animals and humans with respect to elevated arginase and decreased NO the prediction is that orally-administered ABH will result in similar improvements in vascular and erectile function in the type 2 diabetic ZDF rats. […] ABH is hypothesized to inhibit pathologically elevated vascular arginase, restore normal eNOS coupling, and enhance both erectile and vascular endothelial function. […]\nZDF rats are made diabetic by feeding a high-fat diet, while a cohort of ZLC rats are fed a normal diet. […] Aortic PWV is calculated as the separation distance divided by the difference in arrival times of the rat's pulse, with respect to the R-peak of the electrocardiogram (ECG), reported in meters per second (m/s).\nAt the end of the 4 week treatment period, erectile function is determined in vivo. […] Erectile response to electrical field stimulation (neurogenic response) is measured by catheterizing the right crus, and connecting it to a pressure transducer to permit continuous measurement of intracavernosal pressure (ICP). […] The erectile response (ICP) to injections of […] is determined. ICP is monitored during ACh administration, and until it returns to baseline. […]"}}}
{"compound": "N[C@@H](CCCCB(O)O)C(=O)O", "note": "[ABH, 2(S)-Amino-6-boronohexanoic acid]", "values": [{"measurement": "vascular stiffness (pulse wave velocity, PWV)", "setting": "aged Fisher rats; aged (22-26 months) rats, ABH 6 mg/kg 28 days", "value": "marked decrease in vascular stiffness"}, {"measurement": "increase in vascular stiffness over the 28 days of the experiment", "setting": "aged Fisher rats; young rats, ABH treated vs young control rats", "value": "not observed"}, {"measurement": "potency as inhibitor of arginase I", "setting": "arginase I", "value": "most potent inhibitor"}, {"measurement": "responses to the endothelial-independent NO donor SNP in aortic rings", "setting": "rat aortic rings; after 28 days oral ABH", "value": "not affected"}, {"measurement": "vascular relaxation to acetylcholine (ACh) in aortic rings", "setting": "rat aortic rings; aged rats, 28 days oral ABH, rings pre-constricted with phenylephrine 1 μM", "value": "substantially improved"}, {"measurement": "vascular endothelial relaxation in aortic rings", "setting": "rat aortic rings; young rats", "value": "no effect"}, {"measurement": "vascular arginase activity and vascular ROS concentration", "setting": "diabetic ZDF rats; ABH orally four weeks, vs untreated diabetic ZDF rats", "value": "significant decreases"}, {"measurement": "in vivo erectile function, pulse wave velocity and ex vivo vasorelaxation", "setting": "diabetic ZDF rats; ABH orally in drinking water four weeks, vs untreated ZDF rats", "value": "significant improvements"}]}
